Experimental data: publication PMC6839509, “Fluorescent probes towards selective cathepsin B detection and visualization in cancer cells and patient samples” (Chemical Science, 2019)
Several values for one entry are separate records, joined by “and”; a condition that tells them apart may be missing. Identical values can stand only once. Square brackets hold non-standard residues; d marks the D form. * marks the point of attachment. Phe(4-Cl) = N[C@@H](Cc1ccc(Cl)cc1)C(=O)O; ACC = NC(=O)Cc1cc(=O)oc2cc(N*)ccc12; hTyr = N[C@@H](CCc1ccc(O)cc1)C(=O)O; hPhe = N[C@@H](CCc1ccccc1)C(=O)O; Cha = N[C@@H](CC1CCCCC1)C(=O)O; AMC = Cc1cc(=O)oc2cc(N*)ccc12; hLeu = CC(C)CC[C@H](N)C(=O)O; hSer = N[C@@H](CCO)C(=O)O; Nle = CCCC[C@H](N)C(=O)O; Nva = CCC[C@H](N)C(=O)O; Cbz = O=C(OCc1ccccc1)*; OBn = c1ccc(CO*)cc1; Bn = c1ccc(C*)cc1

Key:
[1] = molecular target: T1, cathepsin B in human cancer cell lines (Homo sapiens, UniProt P07858); assay: Detection of active cathepsin B in cancer cells using Cy5-labeled MP-CB-2 probe (SDS-PAGE, Western blot); type: cell-based; settings: A-431 cells; E-64d 25 μM; 1 μM MP-CB-2
T1 construct: we were able to label both cathepsin B active forms (single chain 29 kDa, and light chain 6 kDa); endogenous in cells; host or cells: human cancer cell lines (A-431, HCT-116, OVCAR-5, SK-OV-3, MDA-MB-231, U2-OS, PC-3, HeLa and others)
Method: 50 000 cells from fourteen adherent cancer cell lines were seeded into 12-well plates and allowed to attach overnight. In parallel, 50 000 cells from four non-adherent cancer cell lines were placed into 12-well plates and cultured overnight. The next day, MP-CB-2 ABP was added to the cells (1 μM final concentration) and incubated for various times (1, 4, 8, 24 hours). Next, cells were harvested, centrifuged at 500 × g for 5 min, cell pellets were washed with 1× DPBS, cells were centrifuged again at 500 × g for 5 min, and the supernatant was discarded. Finally, cell pellets were solubilized in 100 μL of 1× SDS/DTT and boiled for 5 min, cooled to room temperature and sonicated. Each sample (30 μL) was then subjected to SDS-PAGE analysis (4–12% Bis–Tris Plus 10-well gels, 200 V, 30 min), followed by protein transfer onto the membrane (0.2 μm nitrocellulose membrane, 10 V, 60 min). Ponceau S staining verified equal loading and transfer of proteins. Membranes were blocked in 2.5% BSA in TBS-T for 1 hour at room temperature. […] The images were then analyzed with the Image Studio software.
50 000 of selected cancer cells (A-431, HCT-116, OVCAR-5, SK-OV-3, MDA-MB-231, U2-OS, and PC-3) were seeded into 12-well plates and allowed to attach overnight. […] All images were analyzed with Image Studio software.

[2] = molecular target: T2, human recombinant cathepsin B (Homo sapiens, UniProt P07858); assay: Substrate hydrolysis kinetics (kcat, KM, kcat/KM) of ACC-labeled substrates; type: biochemical; settings: for kcat/KM Cat B: cathepsin B 0.3–0.5 nM, 100 mM sodium acetate, 100 mM NaCl, 10 mM DTT, 1 mM EDTA, Michaelis–Menten, average of at least triplicate; for kcat/KM Cat B / kcat Cat B / Km: pH 5.5, 37 °C, S.D. below 15%; for kcat Cat B / Km: four independent experiments; for Km: read-out: KM Cat B
T2 construct: made in house
Method: (§1) All kinetic experiments were performed using a CLARIOStar (BMG LABTECH) plate reader operating in fluorescence kinetic mode using 96-well plates (Corning®, Costar®). ACC-labeled fluorescent substrates were screened at 355 nm (excitation) and 460 nm (emission) wavelengths (gain 650). The cathepsin assay buffer was composed of 100 mM sodium acetate, 100 mM sodium chloride, 10 mM DTT, 1 mM EDTA, pH 5.5. All kinetic studies were performed at 37 °C.
(§2) The kinetic parameters for all ACC-labeled substrates were determined using Michaelis–Menten kinetic according to the protocol described by Poreba et al.[41] […] All experiments were performed at least in triplicate and the results are presented as average values (S.D. for all tested substrates was below 15%).

[3] = molecular target: T3, human recombinant cathepsin K (Homo sapiens, UniProt P43235); assay: as above; type: biochemical; settings: pH 5.5, 37 °C, S.D. below 15%; for kcat/KM Cat K: cathepsin K 320 nM, Michaelis–Menten, average of at least triplicate; for kcat Cat K / Km: four independent experiments; for Km: read-out: KM Cat K
T3 construct: with a 100 nM final concentration of each active cathepsin for 30 min; made in house
T3 sequence (P43235 115-329): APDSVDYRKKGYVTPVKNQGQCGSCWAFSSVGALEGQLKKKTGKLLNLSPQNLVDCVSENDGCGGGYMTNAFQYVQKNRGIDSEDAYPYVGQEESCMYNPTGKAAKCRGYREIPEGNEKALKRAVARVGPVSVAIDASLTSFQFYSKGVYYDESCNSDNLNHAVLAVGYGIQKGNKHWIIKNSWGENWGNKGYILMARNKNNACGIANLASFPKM
Method: as §1, §2

[4] = molecular target: T4, human recombinant cathepsin L (Homo sapiens, UniProt P07711); assay: as above; type: biochemical; settings: pH 5.5, 37 °C, S.D. below 15%; for kcat/KM Cat L: cathepsin L 250 nM, Michaelis–Menten, average of at least triplicate; for kcat Cat L / Km: four independent experiments; for Km: read-out: KM Cat L
T4 construct: with a 100 nM final concentration of each active cathepsin for 30 min; made in house
Method: as §1, §2

[5] = molecular target: T5, human recombinant cathepsin S (Homo sapiens, UniProt P25774); assay: as above; type: biochemical; settings: pH 5.5, 37 °C, S.D. below 15%; for kcat/KM Cat S: cathepsin S 150 nM, Michaelis–Menten, average of at least triplicate; for kcat Cat S / Km: four independent experiments; for Km: read-out: KM Cat S
T5 construct: with a 100 nM final concentration of each active cathepsin for 30 min; made in house
Method: as §1, §2

[6] = molecular target: T6, human recombinant cathepsin V (Homo sapiens, UniProt O60911); assay: as above; type: biochemical; settings: pH 5.5, 37 °C, S.D. below 15%; for kcat/KM Cat V: cathepsin V 200 nM, Michaelis–Menten, average of at least triplicate; for kcat Cat V / Km: four independent experiments; for Km: read-out: KM Cat V
T6 construct: with a 100 nM final concentration of each active cathepsin for 30 min; made in house
Method: as §1, §2

T4 sequence (P07711 114-333): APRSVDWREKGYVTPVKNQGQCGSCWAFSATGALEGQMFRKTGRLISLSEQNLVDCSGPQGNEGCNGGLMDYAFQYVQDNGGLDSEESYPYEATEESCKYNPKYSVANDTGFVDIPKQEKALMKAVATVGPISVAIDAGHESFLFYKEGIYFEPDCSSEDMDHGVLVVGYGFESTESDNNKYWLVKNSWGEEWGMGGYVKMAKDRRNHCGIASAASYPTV
T5 sequence (P25774 115-331): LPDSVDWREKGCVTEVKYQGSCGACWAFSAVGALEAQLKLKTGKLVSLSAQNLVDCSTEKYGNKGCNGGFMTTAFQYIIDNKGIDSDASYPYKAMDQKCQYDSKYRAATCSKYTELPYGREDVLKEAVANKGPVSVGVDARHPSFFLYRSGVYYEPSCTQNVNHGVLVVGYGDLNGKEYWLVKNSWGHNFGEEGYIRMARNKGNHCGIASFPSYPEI
T6 sequence (O60911 114-334): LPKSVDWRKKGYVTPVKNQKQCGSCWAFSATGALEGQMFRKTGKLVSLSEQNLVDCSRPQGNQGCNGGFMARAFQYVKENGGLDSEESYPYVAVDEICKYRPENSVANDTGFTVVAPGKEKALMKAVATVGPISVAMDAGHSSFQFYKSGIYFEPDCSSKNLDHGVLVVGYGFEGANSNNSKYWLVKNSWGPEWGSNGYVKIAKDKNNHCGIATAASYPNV

Compound	kcat/KM Cat B [2]	kcat/KM Cat K [3]	kcat/KM Cat L [4]	kcat/KM Cat S [5]	kcat/KM Cat V [6]	also measured
CCOC(=O)[C@H]1O[C@@H]1C(=O)N[C@@H](CC(C)C)C(=O)NCCC(C)C [E-64d]						prevention of cathepsin B labeling by MP-CB-2 on pre-incubation with inhibitor [1]: completely prevented
Ac-hLeu-Nle-Glu(Chx)-Arg-ACC [ACC-labeled tetrapeptide substrate]	2,600,000 M^-1s^-1	11 M⁻¹ s⁻¹	769 M⁻¹ s⁻¹	25 M⁻¹ s⁻¹	1,310 M^-1s^-1	
Ac-[hLeu][Nle]E(OBn)R-{ACC} (SMILES CCCC[C@H](NC(=O)[C@H](CCC(C)C)NC(C)=O)C(=O)N[C@@H](CCC(=O)OCc1ccccc1)C(=O)N[C@@H](CCCNC(=N)N)C(=O)Nc1ccc2c(CC(N)=O)cc(=O)oc2c1) [ACC-labeled tetrapeptide substrate]	3,450,000 M^-1s^-1	17 M⁻¹ s⁻¹	1,090 M^-1s^-1	96 M⁻¹ s⁻¹	1,180 M^-1s^-1	
Ac-[hLeu][Nle][hSer](Bn)R-{ACC} (SMILES CCCC[C@H](NC(=O)[C@H](CCC(C)C)NC(C)=O)C(=O)N[C@@H](CCOCc1ccccc1)C(=O)N[C@@H](CCCNC(=N)N)C(=O)Nc1ccc2c(CC(N)=O)cc(=O)oc2c1) [ACC-labeled tetrapeptide substrate]		16 M⁻¹ s⁻¹ and 19 M⁻¹ s⁻¹		65 M⁻¹ s⁻¹ and 39 M⁻¹ s⁻¹		
Ac-[hTyr]LE(OBn)R-{ACC} (SMILES CC(=O)N[C@@H](CCc1ccc(O)cc1)C(=O)N[C@@H](CC(C)C)C(=O)N[C@@H](CCC(=O)OCc1ccccc1)C(=O)N[C@@H](CCCNC(=N)N)C(=O)Nc1ccc2c(CC(N)=O)cc(=O)oc2c1) [ACC-labeled tetrapeptide substrate]	2,760,000 M^-1s^-1	14 M⁻¹ s⁻¹	1,170 M^-1s^-1	41 M⁻¹ s⁻¹	692 M⁻¹ s⁻¹	
Ac-[Cha]L[hSer](Bn)R-{ACC} (SMILES CC(=O)N[C@@H](CC1CCCCC1)C(=O)N[C@@H](CC(C)C)C(=O)N[C@@H](CCOCc1ccccc1)C(=O)N[C@@H](CCCNC(=N)N)C(=O)Nc1ccc2c(CC(N)=O)cc(=O)oc2c1) [ACC-labeled tetrapeptide substrate]	4,300,000 M^-1s^-1	14 M⁻¹ s⁻¹	1,040 M^-1s^-1	44 M⁻¹ s⁻¹	518 M⁻¹ s⁻¹	kcat Cat B [2]: 390 s⁻¹; Km [2]: 90.9 µM; kcat Cat K [3]: < 0.007 s⁻¹; Km [3]: > 500 µM; kcat Cat L [4]: 0.109 s⁻¹; Km [4]: 105 µM; kcat Cat S [5]: < 0.022 s⁻¹; Km [5]: > 500 µM; kcat Cat V [6]: 0.055 s⁻¹; Km [6]: 109 µM
Ac-[hPhe]LE(OBn)R-{ACC} (SMILES CC(=O)N[C@@H](CCc1ccccc1)C(=O)N[C@@H](CC(C)C)C(=O)N[C@@H](CCC(=O)OCc1ccccc1)C(=O)N[C@@H](CCCNC(=N)N)C(=O)Nc1ccc2c(CC(N)=O)cc(=O)oc2c1) [ACC-labeled tetrapeptide substrate]	2,100,000 M^-1s^-1	12 M⁻¹ s⁻¹	726 M⁻¹ s⁻¹	37 M⁻¹ s⁻¹	829 M⁻¹ s⁻¹	
Cbz-Arg-Arg-{AMC} [reference compound]						selectivity for cathepsin B over cathepsin L ([2]; from kcat/KM): 17 fold
Ac-[Nva][Cha]E(OBn)R-{ACC} (SMILES CCC[C@H](NC(C)=O)C(=O)N[C@@H](CC1CCCCC1)C(=O)N[C@@H](CCC(=O)OCc1ccccc1)C(=O)N[C@@H](CCCNC(=N)N)C(=O)Nc1ccc2c(CC(N)=O)cc(=O)oc2c1) [ACC-labeled tetrapeptide substrate]	4,090,000 M^-1s^-1	30 M⁻¹ s⁻¹	1,140 M^-1s^-1	37 M⁻¹ s⁻¹	1,420 M^-1s^-1	
Ac-[Cha]LE(OBn)R-{ACC} (SMILES CC(=O)N[C@@H](CC1CCCCC1)C(=O)N[C@@H](CC(C)C)C(=O)N[C@@H](CCC(=O)OCc1ccccc1)C(=O)N[C@@H](CCCNC(=N)N)C(=O)Nc1ccc2c(CC(N)=O)cc(=O)oc2c1)	3,100,000 M^-1s^-1	14 M⁻¹ s⁻¹	744 M⁻¹ s⁻¹	40 M⁻¹ s⁻¹	949 M⁻¹ s⁻¹	selectivity for cathepsin B in comparison with cathepsin S ([2]; from kcat/KM): ~60 000 fold; kcat Cat B [2]: 344 s⁻¹; Km [2]: 115 µM; kcat Cat K [3]: < 0.007 s⁻¹; Km [3]: > 500 µM; kcat Cat L [4]: 0.062 s⁻¹; Km [4]: 83.5 µM; kcat Cat S [5]: < 0.020 s⁻¹; Km [5]: > 500 µM; kcat Cat V [6]: 0.034 s⁻¹; Km [6]: 35.1 µM
Ac-[Phe(4-Cl)]L[hSer](Bn)R-{ACC} (SMILES CC(=O)N[C@@H](Cc1ccc(Cl)cc1)C(=O)N[C@@H](CC(C)C)C(=O)N[C@@H](CCOCc1ccccc1)C(=O)N[C@@H](CCCNC(=N)N)C(=O)Nc1ccc2c(CC(N)=O)cc(=O)oc2c1) [ACC-labeled tetrapeptide substrate]	3,780,000 M^-1s^-1	12 M⁻¹ s⁻¹	1,540 M^-1s^-1	50 M⁻¹ s⁻¹	570 M⁻¹ s⁻¹	
